Assay results published in PubChem BioAssay AID2060362 (Molecular Pharmacology Branch, DTP, NCI, 2025).
Active and inactive are the calls of the source. How the source made its calls: active means viability on the fitted dose curve at most 10% of control; inactive means the rest.

System: 128128-338-R-J1-PDC spheroids, viability % test/control
Experiment: Anticancer human tumor 128128-338-R-J1-PDC patient-derived melanoma cell line growth inhibition [TAK]
Conditions: spheroids with HUVEC and MSC; for IC50: curve of first compound; for viability, T/C: stronger effect = lower value
Excerpt: Combinatorial screen of targeted agents with TAK-243 and ipatasertib in multi-cell type tumor spheroids
A high-throughput screen of multi-cell type tumor spheroids was designed to identify active combinations of targeted small molecules and TAK-243 or ipatasertib. Complex spheroids include a stromal component modeled by human endothelial cells (HUVEC) and fibroblasts modeled by human mesenchymal stem cells (MSCs). The concentration ranges selected for each drug and investigational agent were based upon clinically achievable concentrations if the clinical Cmax of the agent was known.
Compounds. The drugs and investigational agents: TAK-243 (785004), ipatasertib (767898), everolimus (733504), selumetinib (741078), bortezomib (756655), trametinib (758246), ixazomib (758254), vemurafenib (761431), dabrafenib (764134), sapanisertib (764658), alpelisib (765974), and copanlisib (816437), were obtained from the National Cancer Institute (NCI) Developmental Therapeutics Program Chemical Repository. The FDA-approved anticancer drug set is available from the NCI Developmental Therapeutics Program. […] The stock solutions were prepared in dimethyl sulfoxide (DMSO, Sigma-Aldrich, St. Louis, MO, cat. D2650) at 800-fold the tested concentration and stored at -70 degrees C prior to their use. All drugs and investigational agents were tested over a range starting from a high concentration at or near the clinical Cmax and decreasing in half-log increments. If the clinical Cmax for an agent had not been determined, the highest concentration tested was 10 microM.
NCI60 Cell Culture. NCI60 cell lines were obtained from the NCI Developmental Therapeutics Program Tumor Repository. For each lot of cells, the Repository performed Applied Biosystems AmpFLSTR Identifiler testing with PCR amplification to confirm consistency with the published Identifier STR profile for each cell line. Cells were kept in continuous culture for no more than 20 passages. The optimal seeding densities for each of the cell lines at each time point assessed were determined prior to performing the concentration response studies. Briefly, the NCI60 human tumor lines were grown as monolayers in RPMI 1640 medium supplemented with 10% FBS and 2 mmol/L L-glutamine.
An additional 2 lines were from the NCI60 cell line panel including melanomas, MALME-3M and SK-MEL-2. Pooled donor human umbilical vein endothelial cells (HUVEC, Lonza, cat. CC-2519) and human mesenchymal stem cells (hMSC, Lonza, cat. PT-2501) were purchased from Lonza (Walkersville, MD).
PDMR cell lines were grown in complete medium (DC medium): Dulbecco's modified Eagle's medium (DMEM)/F12 supplemented with 5% fetal bovine serum (FBS), 2 mM L-glutamine, 100 U/mL penicillin and 100 µg/ml streptomycin, 0.4 µg/ml hydrocortisone, 10 ng/ml epidermal growth factor (EGF) recombinant human protein, 24 µg/mL adenine, and 0.1 mg/mL primocin. During culture from frozen stock vials, PDMR cells were cultured in the same medium containing 10 µM Y-27632 (see Table 3). The PDCs were cultured in complete DMEM/F12 media without 10 microM Y-27632 dihydrochloride for at least two passages prior to the screen. The pooled donor HUVEC and hMSC were cultured in endothelial cell growth medium 2 (PromoCell, Heidelberg, Germany, cat. C-22011) and mesenchymal stem cell growth medium 2 (PromoCell, cat. C-28009), respectively. For all experiments, HUVEC and hMSC were used at passages </=5.
For the pre-screen, cell seeding densities were determined from a titration spanning the range from 5,000 to 313 cells per well. The mct-spheroids including 60% malignant cells, 25% HUVEC and 15% MSC dispensed as a mixture into U-bottom Ultra-Low Attachment 384-well plates (Corning, NY)
High-throughput Drug Combination Screening.
Prior to their inoculation into 384-well plates, malignant cells, HUVEC, and hMSC were removed from T flasks using TrypLE express (Thermo Fisher Scientific, cat. 12605036) and harvested by centrifugation for 5 min at 233 x g. […]
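Further: spheroids exposed to compounds for 7 days.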
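Wherever viability, T/C is given: 100% = DMSO vehicle wells.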

What does the source list for `COC1CC2CCC(C)C(O)(O2)C(=O)C(=O)N2CCCCC2C(=O)OC(C(C)CC2CCC(OCCO)C(OC)C2)CC(=O)C(C)C=C(C)C(O)C(OC)C(=O)C(C)CC(C)C=CC=CC=C1C` (stereo not given) + CC(C)NCC(C(=O)N1CCN(c2ncnc3c2C(C)CC3O)CC1)c1ccc(Cl)cc1?
IC50 (second compound 0.3 µM): > 100 nM; IC50 (second compound 0.949 µM): 18.5 nM; IC50 (second compound 3 µM): 7.41 nM; IC50 (second compound 9.49 µM): 0.462 nM; IC50 (second compound 30 µM): < 0.316 nM; viability, T/C (second compound 0.3 µM, first compound 0.000316 µM): 110%; viability, T/C (second compound 0.3 µM, first compound 0.001 µM): 99.9%; viability, T/C (second compound 0.3 µM, first compound 0.00316 µM): 87.6%; viability, T/C (second compound 0.3 µM, first compound 0.01 µM): 69.1%; viability, T/C (second compound 0.3 µM, first compound 0.0316 µM): 56.6%; viability, T/C (second compound 0.3 µM, first compound 0.1 µM): 54.4%; viability, T/C (second compound 0.949 µM, first compound 0.000316 µM): 110%; viability, T/C (second compound 0.949 µM, first compound 0.001 µM): 97.4%; viability, T/C (second compound 0.949 µM, first compound 0.00316 µM): 68.8%; viability, T/C (second compound 0.949 µM, first compound 0.01 µM): 56.4%; viability, T/C (second compound 0.949 µM, first compound 0.0316 µM): 48.8%; viability, T/C (second compound 0.949 µM, first compound 0.1 µM): 35.6%; viability, T/C (second compound 3 µM, first compound 0.000316 µM): 88%; viability, T/C (second compound 3 µM, first compound 0.001 µM): 77.4%; viability, T/C (second compound 3 µM, first compound 0.00316 µM): 62.5%; outcome (second compound 3 µM, first compound 0.01 µM): inactive; outcome (second compound 3 µM, first compound 0.0316 µM): inactive; outcome (second compound 3 µM, first compound 0.1 µM): inactive; viability, T/C (second compound 9.49 µM, first compound 0.000316 µM): 56.3%; viability, T/C (second compound 9.49 µM, first compound 0.001 µM): 37.2%; viability, T/C (second compound 9.49 µM, first compound 0.00316 µM): 20.4%; viability, T/C (second compound 9.49 µM, first compound 0.01 µM): 11.9%; viability, T/C (second compound 9.49 µM, first compound 0.0316 µM): 9.65%; viability, T/C (second compound 9.49 µM, first compound 0.1 µM): 9.71%; viability, T/C (second compound 30 µM, first compound 0.000316 µM): 9.06%; viability, T/C (second compound 30 µM, first compound 0.001 µM): 7.48%; viability, T/C (second compound 30 µM, first compound 0.00316 µM): 3.65%; viability, T/C (second compound 30 µM, first compound 0.01 µM): 2.31%; viability, T/C (second compound 30 µM, first compound 0.0316 µM): 2.3%; viability, T/C (second compound 30 µM, first compound 0.1 µM): 2.06%

How did the IC50 (second compound 0.3 µM) turn out when `Cn1cnc2c(F)c(Nc3ccc(Br)cc3Cl)c(C(=O)NOCCO)cc21` + CC(C)NCC(C(=O)N1CCN(c2ncnc3c2C(C)CC3O)CC1)c1ccc(Cl)cc1 was run?
Its IC50 is 91.3 nM.

What about the IC50 (second compound 0.949 µM) of the same molecule?
Its IC50 is 77.9 nM.

And the IC50 (second compound 3 µM)?
The IC50 was 54.8 nM.

And the IC50 (second compound 9.49 µM)?
Its IC50 is 15.1 nM.

What about the IC50 (second compound 30 µM) of the same molecule?
The IC50 was < 9.49 nM.

And the viability, T/C (second compound 0.3 µM, first compound 0.00949 µM)?
Its viability, T/C is 92.9%.

And the viability, T/C (second compound 0.3 µM, first compound 0.03 µM)?
Its viability, T/C is 83.4%.

And the viability, T/C (second compound 0.3 µM, first compound 0.0949 µM)?
The viability, T/C was 48.7%.

And the viability, T/C (second compound 0.3 µM, first compound 0.3 µM)?
Its viability, T/C is 13.6%.

And the viability, T/C (second compound 0.3 µM, first compound 0.949 µM)?
The viability, T/C was 1.29%.

And the viability, T/C (second compound 0.3 µM, first compound 3 µM)?
The viability, T/C was 1.54%.

What about the viability, T/C (second compound 0.949 µM, first compound 0.00949 µM) of the same molecule?
Its viability, T/C is 85.7%.

And the viability, T/C (second compound 0.949 µM, first compound 0.03 µM)?
The viability, T/C was 76.6%.

And the viability, T/C (second compound 0.949 µM, first compound 0.0949 µM)?
Its viability, T/C is 45%.

What about the viability, T/C (second compound 0.949 µM, first compound 0.3 µM) of the same molecule?
The viability, T/C was 3.97%.

And the viability, T/C (second compound 0.949 µM, first compound 0.949 µM)?
The viability, T/C was 0.63%.

And the viability, T/C (second compound 0.949 µM, first compound 3 µM)?
The viability, T/C was 0.7%.

And the viability, T/C (second compound 3 µM, first compound 0.00949 µM)?
The viability, T/C was 77%.

And the viability, T/C (second compound 3 µM, first compound 0.03 µM)?
Its viability, T/C is 76.2%.

What about the viability, T/C (second compound 3 µM, first compound 0.0949 µM) of the same molecule?
The viability, T/C was 26.3%.

And the viability, T/C (second compound 3 µM, first compound 0.3 µM)?
The viability, T/C was 1.91%.

What about the viability, T/C (second compound 3 µM, first compound 0.949 µM) of the same molecule?
Its viability, T/C is 0.35%.

And the viability, T/C (second compound 3 µM, first compound 3 µM)?
The viability, T/C was 0.16%.

And the viability, T/C (second compound 9.49 µM, first compound 0.00949 µM)?
The viability, T/C was 63%.

And the viability, T/C (second compound 9.49 µM, first compound 0.03 µM)?
Its viability, T/C is 30.6%.

What about the viability, T/C (second compound 9.49 µM, first compound 0.0949 µM) of the same molecule?
The viability, T/C was 10.7%.

What about the viability, T/C (second compound 9.49 µM, first compound 0.3 µM) of the same molecule?
Its viability, T/C is 0.42%.

What about the viability, T/C (second compound 9.49 µM, first compound 0.949 µM) of the same molecule?
The viability, T/C was 0.35%.

And the viability, T/C (second compound 9.49 µM, first compound 3 µM)?
The viability, T/C was 0.17%.

What about the viability, T/C (second compound 30 µM, first compound 0.00949 µM) of the same molecule?
Its viability, T/C is 16.7%.

And the viability, T/C (second compound 30 µM, first compound 0.03 µM)?
The viability, T/C was 4.78%.

What about the viability, T/C (second compound 30 µM, first compound 0.0949 µM) of the same molecule?
The viability, T/C was 0.34%.

And the viability, T/C (second compound 30 µM, first compound 0.3 µM)?
Its viability, T/C is 0.25%.

What about the viability, T/C (second compound 30 µM, first compound 0.949 µM) of the same molecule?
The viability, T/C was 0.15%.

And the viability, T/C (second compound 30 µM, first compound 3 µM)?
The viability, T/C was 0.13%.
